Reference: article PMC12873548, “D-amino acid substitution and cyclization enhance the stability and antimicrobial activity of arginine-rich peptides” (Microbiology, 2026)
Like-named read-outs stand apart in the source and are kept apart here. Residues, ends and D or L forms follow the SMILES beside them. No end group written: not given here. *: point of attachment. NHhexadecyl = CCCCCCCCCCCCCCCCN*

Assays:
S. aureus (ATCC12600) = format: cell-based, Staphylococcus aureus; conditions: S. aureus ATCC12600; for MBC: 10 µl aliquots plated on MH agar, no visible colonies; for MIC: MH broth, 5×10^6 cells, 24 h, 37 °C, absorbance 600 nm, triplicate
Method: (§1) The MIC of arginine-based peptides was assessed using the microbroth dilution approach. Our in vitro screening included a panel of Gram-negative bacteria, Escherichia coli (ATCC 25922 and enterohaemorrhagic O157:H7) and Pseudomonas aeruginosa (PA01 and the drug-resistant strain NCTC 13437), and Gram-positive bacteria (Staphylococcus aureus ATCC 12600). Five-millilitre overnight cultures in Lysogeny broth, prepared from single isolated colonies, were diluted to 5×10^6 c.f.u. ml^−1 mid-log phase in Mueller–Hinton (MH) broth. Next, peptide concentrations (0 to 1 mM) were serially diluted twofold in 96-well plates and incubated overnight at 37 °C with the tested bacterial strains. In each case, the MIC was determined as the lowest peptide concentration at which no detectable bacterial growth was observed, employing an absorbance-based assay using a Tecan Spark® multimode plate reader. Subsequently, 10 µl aliquots from each peptide dilution were transferred to MH agar (1.5%) plates to determine the minimum bactericidal concentration (MBC) which was assessed by establishing at which concentration no visible growth of bacteria (assessed via colony formation) on the plate was observed.

L929 fibroblasts = format: cell-based; conditions: 24 h
Method: The toxicity screening of arginine-rich peptides was conducted in two cell types: human red blood cells (hRBCs) and L929 fibroblasts. The peptide-induced lysis of hRBCs was estimated based on the release of haemoglobin into solution, following a previously established protocol with slight modifications. Briefly, fresh human blood was collected from a healthy donor. To isolate hRBCs from plasma, the blood was centrifuged at 2,000 r.p.m. for 10 min at 4 °C, and the cells were carefully resuspended in 0.5% suspension buffer. After, they were added to a 96-well plate containing various concentrations of peptides diluted in PBS. After incubation for 1 h at 37 °C, cells were spun at 2,000 r.p.m. for 10 min at 4 °C to pellet cell debris and the supernatant collected and measured at OD414. The data was calculated as the % haemolysis relative to the positive control (cells treated with 1% Triton X-100). The toxicity screening using L929 fibroblasts was based on the metabolic activity of cells using an MTS colourimetric assay (Fig. S2). […] The absorbance was measured at OD490 using a Tecan Spark multimode plate reader. The quantification of viable cells was expressed as a % and determined by comparing peptide-treated groups with control cells grown in their absence. […]

P. aeruginosa (PA01) [1] = format: cell-based, Pseudomonas aeruginosa; conditions: for MIC, Control: control without serum or trypsin; for MIC, Trypsin: peptide incubated with 5 µM SGMT trypsin in 50 mM Tris-HCl, 1 mM CaCl2, pH 7.6, 24 h at 37 °C before MIC; for MIC, 20% human serum: peptide incubated with 20% human serum 24 h at 37 °C before MIC; for MIC, 50% human serum: peptide incubated with 50% human serum 24 h at 37 °C before MIC
Method: as §1
(§2) The antimicrobial activity and structural stability of arginine-rich peptides were evaluated in the presence of human serum (20% and 50 %) and 5 µM Sequencing Grade Modified Trypsin (SGMT, Promega). Briefly, fresh human blood was collected in EDTA tubes and allowed to clot at room temperature for 1 h. Serum was then collected following centrifugation at 2,000 r.p.m. for 10 min at 4 °C. Peptides were incubated with 20%, 50% human serum and 5 µM SGMT in 50 mM Tris-HCl buffer (1 mM CaCl₂, pH 7.6) for 24 h at 37 °C. After the incubation period, the solutions were further incubated with E. coli (ATCC 25922 and O157:H7), P. aeruginosa (PA01, NCTC13437) and S. aureus (ATCC12600), and the MIC was assessed as described in the ‘Antibacterial assessment’ section. Additionally, the samples were analysed using electrospray ionization MS to monitor structural changes based on the molecular weight of the peptides.

E. coli (25922) = format: cell-based, Escherichia coli; conditions: for MIC, Control: control without serum or trypsin; for MIC, Trypsin: peptide incubated with 5 µM SGMT trypsin in 50 mM Tris-HCl, 1 mM CaCl2, pH 7.6, 24 h at 37 °C before MIC; for MIC, 20% human serum: peptide incubated with 20% human serum 24 h at 37 °C before MIC; for MIC, 50% human serum: peptide incubated with 50% human serum 24 h at 37 °C before MIC
Method: as §1, §2

[2] = tested on: Gram-positive and Gram-negative bacteria; format: cell-based; conditions: span of MIC and MBC against both Gram-positive and Gram-negative bacteria, Table 2
Method: as §1

E. coli (O157:H7) = format: cell-based, Escherichia coli; conditions: for MBC: 10 µl aliquots plated on MH agar, no visible colonies; for MIC: MH broth, 5×10^6 cells, 24 h, 37 °C, absorbance 600 nm, triplicate
Method: as §1

E. coli (ATCC25922) = format: cell-based, Escherichia coli
Method: as §1

E. coli ATCC 25922 = test: Cytoplasmic membrane depolarization, DiSC3(5); format: cell-based, Escherichia coli; conditions: peptide at 2× MIC or 1,000 µM, positive control Triton X-100
Method: The dye 3,3′-dipropylthiadicarbocyanine iodide DiSC3(5) was employed to evaluate perturbation of the bacterial membrane by our designed arginine-rich peptides. For this, a black 96-well microtiter plate containing 150 µl E. coli cells (OD600=0.5) in MH broth per well was incubated with 0.5 µM DiSC3(5) in 5 mM HEPES buffer (pH 7.4, supplemented with 5 mM glucose and 0.1 M KCl) for 15 min to allow for fluorescence quenching. Then, 2× MIC or 1 mM peptide was added, and changes in fluorescence were monitored in real-time (λex=622 nm, λem=670 nm) using a microplate reader.

P. aeruginosa (PA01) [3] = format: cell-based, Pseudomonas aeruginosa; conditions: P. aeruginosa PA01; for MBC: 10 µl aliquots plated on MH agar, no visible colonies; for MIC: MH broth, 5×10^6 cells, 24 h, 37 °C, absorbance 600 nm, triplicate
Method: as §1

S. aureus (12600) = format: cell-based, Staphylococcus aureus; conditions: for MIC, Control: control without serum or trypsin; for MIC, Trypsin: peptide incubated with 5 µM SGMT trypsin in 50 mM Tris-HCl, 1 mM CaCl2, pH 7.6, 24 h at 37 °C before MIC; for MIC, 20% human serum: peptide incubated with 20% human serum 24 h at 37 °C before MIC; for MIC, 50% human serum: peptide incubated with 50% human serum 24 h at 37 °C before MIC
Method: as §1, §2

E. coli = test: Live/dead SYTO 9/PI fluorescence imaging; format: cell-based, Escherichia coli; conditions: mid-log phase E. coli, 2× MIC; red = damaged membranes
[4] = tested on: P. aeruginosa (NCTC13437); format: cell-based, Pseudomonas aeruginosa; conditions: P. aeruginosa NCTC13437 (drug-resistant)
Method: as §1

[5] = E. coli ATCC25922, 10 µl aliquots plated on MH agar, no visible colonies
[6] = E. coli ATCC25922, MH broth, 5×10^6 cells, 24 h, 37 °C, absorbance 600 nm, triplicate

CCCCCCCCCCCCCCCCNC(=O)[C@H](Cc1ccccc1)NC(=O)[C@H](Cc1ccccc1)NC(=O)[C@H](Cc1ccccc1)NC(=O)[C@H](Cc1ccccc1)NC(=O)[C@H](CCCNC(=N)N)NC(=O)[C@H](CCCNC(=N)N)NC(=O)[C@H](CCCNC(=N)N)NC(=O)[C@@H](N)CCCNC(=N)N [Peptide R4F4-C16] (H-RRRRFFFF-NHhexadecyl; N-terminus and C-terminus assumed)
MBC (S. aureus (ATCC12600)): >1,000/>1,000 μM | MIC (S. aureus (ATCC12600)): >1,000/>1,000 μM | EC50 (L929 fibroblasts): 70 µM | MIC, Control (P. aeruginosa (PA01) [1]): >1,000 μM | MIC, Trypsin (P. aeruginosa (PA01) [1]): >1,000 μM | MIC, 20% human serum (P. aeruginosa (PA01) [1]): >1,000 μM | MIC, 50% human serum (P. aeruginosa (PA01) [1]): >1,000 μM | MIC, Control (E. coli (25922)): 1,000 μM | MIC, Trypsin (E. coli (25922)): >1,000 μM | MIC, 20% human serum (E. coli (25922)): 1,000 μM | MIC, 50% human serum (E. coli (25922)): >1,000 μM | MIC and MBC values over all tested strains [2]: > 1,000 µM | MBC (E. coli (O157:H7)): >1,000/>1,000 μM | MIC (E. coli (O157:H7)): >1,000/>1,000 μM | MBC (E. coli (ATCC25922); [5]): 1,000/>1,000 μM | MIC (E. coli (ATCC25922); [6]): 1,000/>1,000 μM | Cytoplasmic membrane depolarization, DiSC3(5) fluorescence (E. coli ATCC 25922): Greater effects | MBC (P. aeruginosa (PA01) [3]): >1,000/>1,000 μM | MIC (P. aeruginosa (PA01) [3]): >1,000/>1,000 μM | MIC, Control (S. aureus (12600)): >1,000 μM | MIC, Trypsin (S. aureus (12600)): >1,000 μM | MIC, 20% human serum (S. aureus (12600)): >1,000 μM | MIC, 50% human serum (S. aureus (12600)): >1,000 μM

PRRRRFFFF [PR4F4]
MBC (E. coli (ATCC25922); ATCC25922): 125 µM | MIC (E. coli (ATCC25922); ATCC25922, 24 h): 62.5 µM

Polymyxin B [reference compound]
MBC (S. aureus (ATCC12600)): > 76.8 µM | MIC (S. aureus (ATCC12600)): > 76.8 µM | Membrane damage, live/dead SYTO 9/PI staining (E. coli): high presence of red-stained cells indicative of damaged membranes | MIC, Control (P. aeruginosa (PA01) [1]): 2.4 µM | MIC, Trypsin (P. aeruginosa (PA01) [1]): 2.4 µM | MIC, 20% human serum (P. aeruginosa (PA01) [1]): 2.4 µM | MIC, 50% human serum (P. aeruginosa (PA01) [1]): 2.4 µM | MIC, Control (E. coli (25922)): 2.8 µM | MIC, Trypsin (E. coli (25922)): 2.4 µM | MIC, 20% human serum (E. coli (25922)): 2.8 µM | MIC, 50% human serum (E. coli (25922)): 2.4 µM | MBC (E. coli (O157:H7)): 4.8 µM | MIC (E. coli (O157:H7)): 4.8 µM | MBC (E. coli (ATCC25922); [5]): 4.8 µM | MIC (E. coli (ATCC25922); [6]): 2.8 µM | MBC (P. aeruginosa (PA01) [3]): 4.8 µM | MIC (P. aeruginosa (PA01) [3]): 2.4 µM | MBC ([4]; 10 µl aliquots plated on MH agar, no visible colonies): 38.4 µM | MIC ([4]; MH broth, 5×10^6 cells, 24 h, 37 °C, absorbance 600 nm, triplicate): 9.6 µM | MIC, Control (S. aureus (12600)): >76.8 µM | MIC, Trypsin (S. aureus (12600)): >76.8 µM | MIC, 20% human serum (S. aureus (12600)): >76.8 µM | MIC, 50% human serum (S. aureus (12600)): >76.8 µM
